In general, IC50 refers to the concentration at which inhibition is half-maximal. The Ki is the equilibrium dissociation constant of an inhibitor or competing ligand from its target.

Chain of Mitogen-activated protein kinase 3 (P27361 whole entry): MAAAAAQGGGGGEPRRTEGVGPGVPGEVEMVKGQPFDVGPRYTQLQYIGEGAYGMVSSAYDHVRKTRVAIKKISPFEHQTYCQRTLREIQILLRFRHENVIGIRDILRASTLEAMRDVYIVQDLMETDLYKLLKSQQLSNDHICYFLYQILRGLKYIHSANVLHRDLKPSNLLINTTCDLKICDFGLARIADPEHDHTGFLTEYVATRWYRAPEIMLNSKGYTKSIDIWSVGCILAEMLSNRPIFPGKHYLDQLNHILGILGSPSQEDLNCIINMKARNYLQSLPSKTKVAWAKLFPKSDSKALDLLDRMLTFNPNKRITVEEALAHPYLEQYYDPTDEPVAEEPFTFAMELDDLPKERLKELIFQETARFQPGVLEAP

In the first assay the target is T1, Substance-K receptor (Homo sapiens, UniProt P21452). Note: in other assays of this panel Not Active means under 50% inhibition at 10 µM.
T1 sequence (P21452 whole entry): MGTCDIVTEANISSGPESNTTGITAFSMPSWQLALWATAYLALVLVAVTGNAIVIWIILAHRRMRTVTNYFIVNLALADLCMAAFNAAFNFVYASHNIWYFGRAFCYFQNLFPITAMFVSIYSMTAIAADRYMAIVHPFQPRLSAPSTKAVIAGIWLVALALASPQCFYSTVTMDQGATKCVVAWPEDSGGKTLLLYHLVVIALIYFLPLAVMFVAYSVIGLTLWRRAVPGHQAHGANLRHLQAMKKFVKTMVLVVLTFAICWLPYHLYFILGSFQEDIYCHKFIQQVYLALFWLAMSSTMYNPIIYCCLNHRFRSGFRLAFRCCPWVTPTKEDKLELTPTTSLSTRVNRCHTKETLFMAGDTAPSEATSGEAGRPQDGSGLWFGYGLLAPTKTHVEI
Experiment: not given
It counts as cell membranes, CHO, Membrane. The note with it: cho.
Regarding `COc1ccc([C@@H]2Sc3ccccc3N(CCN(C)C)C(=O)[C@@H]2OC(C)=O)cc1` [DILTIAZEM], the IC50 result is on record as “Not Active”.
Same read-out and setting: for `NCC(=O)O` [GLYCINE] the value was “Not Active”.

The assay is the same for the next values; noted with them: read-out: IC50.
With `CCCCCCCCCc1ccc(O)cc1` [4-NONYLPHENOL], the IC50 was determined as 4.51 µM.

Staying with this assay, now noted: read-out: Ki.
`CCCCCCCCCc1ccc(O)cc1` [4-NONYLPHENOL]: the inhibition constant (Ki) came to 1.51 µM.

Test system in a further assay: not listed separately
In words: DRUGMATRIX: Nicotinic Acetylcholine radioligand binding (ligand: [125I] Epibatidine). The assay is classed as cell membranes, Membrane. Conditions: imr-32; Not Active = under 50% inhibition at 10 µM.
Consider `CCCCCCCCCc1ccc(O)cc1` [4-NONYLPHENOL], for which the IC50 result was “Not Active” and the Ki entry is recorded as “Not Active”.
Consider `COc1ccc([C@@H]2Sc3ccccc3N(CCN(C)C)C(=O)[C@@H]2OC(C)=O)cc1` [DILTIAZEM], for which the IC50 entry is “Not Active” and the inhibitory constant (Ki) result is reported as “Not Active”.
Consider `NCC(=O)O` [GLYCINE], for which the half-inhibitory concentration (IC50) result is given as “Not Active” and the Ki result was “Not Active”.

The target in another assay is T2, Angiotensin-converting enzyme (Oryctolagus cuniculus, UniProt P12822).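 Note: enzymatic inhibition of angiotensin-converting enzyme measured with FAPGG as the substrate; in other assays of this panel Not Active means under 50% inhibition at 10 µM.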
T2 sequence (P12822 whole entry): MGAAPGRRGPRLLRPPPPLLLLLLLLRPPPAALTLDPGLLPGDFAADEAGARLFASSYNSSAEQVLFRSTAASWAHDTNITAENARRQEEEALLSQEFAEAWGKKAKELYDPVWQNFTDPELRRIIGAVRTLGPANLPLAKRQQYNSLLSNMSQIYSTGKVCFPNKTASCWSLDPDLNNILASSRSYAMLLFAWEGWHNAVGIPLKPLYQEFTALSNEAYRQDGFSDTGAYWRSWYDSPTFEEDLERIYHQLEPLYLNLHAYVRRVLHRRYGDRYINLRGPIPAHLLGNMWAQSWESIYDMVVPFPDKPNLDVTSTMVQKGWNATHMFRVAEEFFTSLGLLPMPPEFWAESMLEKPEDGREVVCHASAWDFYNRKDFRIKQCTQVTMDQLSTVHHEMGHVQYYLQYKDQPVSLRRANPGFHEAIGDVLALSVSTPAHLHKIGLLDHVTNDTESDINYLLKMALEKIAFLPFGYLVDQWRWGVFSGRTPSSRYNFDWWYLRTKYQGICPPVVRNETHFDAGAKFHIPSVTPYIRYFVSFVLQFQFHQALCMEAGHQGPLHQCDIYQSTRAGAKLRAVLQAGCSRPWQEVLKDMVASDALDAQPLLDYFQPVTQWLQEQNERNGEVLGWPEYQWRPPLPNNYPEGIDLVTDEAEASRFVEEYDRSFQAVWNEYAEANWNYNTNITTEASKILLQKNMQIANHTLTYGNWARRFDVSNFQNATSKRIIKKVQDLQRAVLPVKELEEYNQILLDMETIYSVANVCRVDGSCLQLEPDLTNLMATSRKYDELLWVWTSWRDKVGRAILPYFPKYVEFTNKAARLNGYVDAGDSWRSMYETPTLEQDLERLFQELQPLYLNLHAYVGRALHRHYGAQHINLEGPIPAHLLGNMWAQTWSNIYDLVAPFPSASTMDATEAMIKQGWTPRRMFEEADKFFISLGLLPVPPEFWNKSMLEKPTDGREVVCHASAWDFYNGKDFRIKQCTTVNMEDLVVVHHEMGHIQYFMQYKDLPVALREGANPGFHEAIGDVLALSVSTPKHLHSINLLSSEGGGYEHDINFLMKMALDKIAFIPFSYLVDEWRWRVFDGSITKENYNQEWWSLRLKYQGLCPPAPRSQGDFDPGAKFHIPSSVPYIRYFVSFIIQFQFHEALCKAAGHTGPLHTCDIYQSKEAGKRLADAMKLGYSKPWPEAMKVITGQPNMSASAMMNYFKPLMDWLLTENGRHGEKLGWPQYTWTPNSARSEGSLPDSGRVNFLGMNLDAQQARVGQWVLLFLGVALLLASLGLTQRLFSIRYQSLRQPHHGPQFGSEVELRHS
Put plainly: biochemical. It counts as tissue-based, Lung.
Conditions: not given
`CCCCCCCCCc1ccc(O)cc1` [4-NONYLPHENOL]: the concentration for half-maximal inhibition (IC50) result is recorded as “Not Active”.
Still for that read-out and setting: with `COc1ccc([C@@H]2Sc3ccccc3N(CCN(C)C)C(=O)[C@@H]2OC(C)=O)cc1` [DILTIAZEM] the entry was “Not Active”; with `NCC(=O)O` [GLYCINE], “Not Active”.

Test system in the next assay: not listed separately
Put plainly: DRUGMATRIX: GABAA, Muscimol, Central radioligand binding (ligand: [3H] Muscimol). The assay is classed as cell membranes, Rattus norvegicus, Wistar, Brain, Membrane. Conditions: Not Active = under 50% inhibition at 10 µM.
On to `CCCCCCCCCc1ccc(O)cc1` [4-NONYLPHENOL], for which the IC50 result is on record as “Not Active” and the Ki result was “Not Active”.
For the compound `COc1ccc([C@@H]2Sc3ccccc3N(CCN(C)C)C(=O)[C@@H]2OC(C)=O)cc1` [DILTIAZEM], the half-inhibitory concentration (IC50) result was “Not Active” and the Ki entry is on record as “Not Active”.
On to `NCC(=O)O` [GLYCINE], for which the IC50 entry is on record as “Not Active” and the inhibition constant (Ki) result is “Not Active”.

For another assay, the target named is Substance-P receptor (Homo sapiens, UniProt P25103). Note: in other assays of this panel Not Active means under 50% inhibition at 10 µM.
Chain of Substance-P receptor (P25103 whole entry): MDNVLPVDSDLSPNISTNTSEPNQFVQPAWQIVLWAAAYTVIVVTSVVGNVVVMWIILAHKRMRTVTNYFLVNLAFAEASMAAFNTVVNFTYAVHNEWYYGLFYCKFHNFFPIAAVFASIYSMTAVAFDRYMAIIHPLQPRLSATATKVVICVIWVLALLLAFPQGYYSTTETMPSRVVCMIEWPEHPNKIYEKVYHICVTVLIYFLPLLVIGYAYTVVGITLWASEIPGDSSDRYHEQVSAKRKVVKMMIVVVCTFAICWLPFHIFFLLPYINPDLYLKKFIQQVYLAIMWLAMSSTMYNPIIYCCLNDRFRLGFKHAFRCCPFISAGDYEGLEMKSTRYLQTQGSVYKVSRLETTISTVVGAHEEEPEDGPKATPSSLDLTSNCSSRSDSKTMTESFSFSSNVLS
Experiment: not given
The assay is classed as cell membranes, CHO, Membrane. The note with it: cho.
For the compound `CCCCCCCCCc1ccc(O)cc1` [4-NONYLPHENOL], the IC50 result is recorded as “Not Active”.
`COc1ccc([C@@H]2Sc3ccccc3N(CCN(C)C)C(=O)[C@@H]2OC(C)=O)cc1` [DILTIAZEM]: the IC50 result is given as “Not Active”.
With `NCC(=O)O` [GLYCINE], the half-inhibitory concentration (IC50) entry is “Not Active”.

A further assay has as its target Mitogen-activated protein kinase 3 (Homo sapiens, UniProt P27361). Put plainly: DRUGMATRIX: Protein Serine/Threonine Kinase, ERK1 enzyme inhibition (substrate: Myelin Basic Protein). Further details: species or system Escherichia coli. Conditions: Not Active = under 50% inhibition at 10 µM.
Turning to `CCCCCCCCCc1ccc(O)cc1` [4-NONYLPHENOL], the IC50 entry is “Not Active”.
On the same count and under the same terms, for `COc1ccc([C@@H]2Sc3ccccc3N(CCN(C)C)C(=O)[C@@H]2OC(C)=O)cc1` [DILTIAZEM] the value was “Not Active”; for `NCC(=O)O` [GLYCINE], “Not Active”.

Test system in a further assay: not listed separately
In words: DRUGMATRIX: Potassium Channel [KATP] radioligand binding (ligand: [3H] Glyburide). The assay is classed as cell membranes, Membrane. The note with it: hit-t15; Not Active = under 50% inhibition at 10 µM.
As for `CCCCCCCCCc1ccc(O)cc1` [4-NONYLPHENOL], the IC50 result was “Not Active” and the Ki entry was “Not Active”.
As to `COc1ccc([C@@H]2Sc3ccccc3N(CCN(C)C)C(=O)[C@@H]2OC(C)=O)cc1` [DILTIAZEM], the IC50 result was “Not Active” and the Ki entry is “Not Active”.
As for `NCC(=O)O` [GLYCINE], the IC50 result is listed as “Not Active” and the Ki result is “Not Active”.

A further assay addresses T3, Calcitonin receptor (Homo sapiens, UniProt P30988).
T3 sequence (P30988 whole entry): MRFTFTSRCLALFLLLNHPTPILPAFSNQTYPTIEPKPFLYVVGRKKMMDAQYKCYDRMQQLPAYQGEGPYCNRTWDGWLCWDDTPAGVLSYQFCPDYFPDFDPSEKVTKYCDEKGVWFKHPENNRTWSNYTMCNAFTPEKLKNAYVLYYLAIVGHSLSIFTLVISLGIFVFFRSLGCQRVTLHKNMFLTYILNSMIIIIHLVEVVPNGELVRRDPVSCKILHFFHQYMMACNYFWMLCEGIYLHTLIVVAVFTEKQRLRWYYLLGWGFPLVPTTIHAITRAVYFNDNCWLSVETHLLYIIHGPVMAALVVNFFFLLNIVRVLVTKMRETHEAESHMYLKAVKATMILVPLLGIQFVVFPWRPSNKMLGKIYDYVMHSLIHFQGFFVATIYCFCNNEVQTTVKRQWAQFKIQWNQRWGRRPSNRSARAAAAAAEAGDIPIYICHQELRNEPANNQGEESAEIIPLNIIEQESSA
Experiment: not given
The assay is classed as cell membranes, Membrane. Conditions: t47d.
Turning to `CCCCCCCCCc1ccc(O)cc1` [4-NONYLPHENOL], the IC50 result is “Not Active”.
On to `COc1ccc([C@@H]2Sc3ccccc3N(CCN(C)C)C(=O)[C@@H]2OC(C)=O)cc1` [DILTIAZEM], for which the IC50 result was “Not Active”.
In the case of `NCC(=O)O` [GLYCINE], the IC50 entry is given as “Not Active”.

Test system in another assay: not listed separately
Put plainly: DRUGMATRIX: Interleukin IL-1 radioligand binding (ligand: [125I] interleukin 1beta). It counts as cell membranes, Membrane. Conditions: nih3t3; Not Active = under 50% inhibition at 10 µM.
For `CCCCCCCCCc1ccc(O)cc1` [4-NONYLPHENOL], the IC50 result is “Not Active” and the Ki entry is “Not Active”.
For `COc1ccc([C@@H]2Sc3ccccc3N(CCN(C)C)C(=O)[C@@H]2OC(C)=O)cc1` [DILTIAZEM], the half-maximal inhibitory concentration (IC50) entry is recorded as “Not Active” and the Ki result is given as “Not Active”.
In the case of `NCC(=O)O` [GLYCINE], the IC50 result is “Not Active” and the Ki entry was “Not Active”.

The target of a further assay is Adenosine receptor A2a (Homo sapiens, UniProt P29274). Put plainly: DRUGMATRIX: Adenosine A2A radioligand binding (ligand: […]). It counts as cell membranes, HEK293, Membrane. The note with it: hek293; Not Active = under 50% inhibition at 10 µM.
Chain of Adenosine receptor A2a (P29274 whole entry): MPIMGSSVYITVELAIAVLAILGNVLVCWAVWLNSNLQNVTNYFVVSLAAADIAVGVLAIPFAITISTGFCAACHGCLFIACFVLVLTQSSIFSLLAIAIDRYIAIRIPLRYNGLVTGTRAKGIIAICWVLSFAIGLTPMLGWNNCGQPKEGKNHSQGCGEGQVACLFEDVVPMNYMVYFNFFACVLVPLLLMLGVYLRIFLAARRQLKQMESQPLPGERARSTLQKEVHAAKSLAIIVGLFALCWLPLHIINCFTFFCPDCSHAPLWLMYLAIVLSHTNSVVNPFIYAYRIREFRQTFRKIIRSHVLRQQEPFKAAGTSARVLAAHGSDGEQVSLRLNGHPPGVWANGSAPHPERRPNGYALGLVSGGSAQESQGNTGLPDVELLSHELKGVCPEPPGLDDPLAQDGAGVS
Regarding `CCCCCCCCCc1ccc(O)cc1` [4-NONYLPHENOL], the concentration for half-maximal inhibition (IC50) result was “Not Active”.
In the case of `COc1ccc([C@@H]2Sc3ccccc3N(CCN(C)C)C(=O)[C@@H]2OC(C)=O)cc1` [DILTIAZEM], the half-maximal inhibitory concentration (IC50) result is recorded as “Not Active”.
Still for that read-out and setting: for `NCC(=O)O` [GLYCINE] the value was “Not Active”.

For the next assay, the target named is C-C chemokine receptor type 5 (Homo sapiens, UniProt P51681). Note: in other assays of this panel Not Active means under 50% inhibition at 10 µM.
Chain of C-C chemokine receptor type 5 (P51681 whole entry): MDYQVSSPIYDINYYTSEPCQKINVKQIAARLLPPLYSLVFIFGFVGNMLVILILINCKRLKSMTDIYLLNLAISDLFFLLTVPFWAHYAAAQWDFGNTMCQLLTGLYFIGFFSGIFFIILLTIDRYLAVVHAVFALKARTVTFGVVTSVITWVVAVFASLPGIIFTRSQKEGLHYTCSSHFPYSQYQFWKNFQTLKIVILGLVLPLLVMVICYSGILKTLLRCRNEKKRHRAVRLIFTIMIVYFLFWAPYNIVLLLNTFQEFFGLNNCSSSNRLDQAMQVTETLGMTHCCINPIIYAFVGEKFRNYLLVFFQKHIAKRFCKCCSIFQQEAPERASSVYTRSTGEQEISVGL
Experiment: not given
The assay is classed as cell membranes, Membrane. The note with it: hek293.
`CCCCCCCCCc1ccc(O)cc1` [4-NONYLPHENOL]: the IC50 entry is “Not Active”.
Still for that read-out and setting: for `COc1ccc([C@@H]2Sc3ccccc3N(CCN(C)C)C(=O)[C@@H]2OC(C)=O)cc1` [DILTIAZEM] the value was “Not Active”.
On the same count and under the same terms, for `NCC(=O)O` [GLYCINE] the value was “Not Active”.

Another assay has as its target Glycine receptor (Rattus norvegicus, UniProt P22771+P24524+P07727+P20781). Note: in other assays of this panel Not Active means under 50% inhibition at 10 µM.
Experiment: not given
Conditions: not given
The assay is classed as cell membranes, Wistar, Spinal cord, Membrane.
With `CCCCCCCCCc1ccc(O)cc1` [4-NONYLPHENOL], the 50% inhibitory concentration (IC50) entry was “Not Active”.
On the same count and under the same terms, with `COc1ccc([C@@H]2Sc3ccccc3N(CCN(C)C)C(=O)[C@@H]2OC(C)=O)cc1` [DILTIAZEM] the entry was “Not Active”.
The same measure, in the same setting: for `NCC(=O)O` [GLYCINE] the value was “Not Active”.

Values taken from ChEMBL document CHEMBL1909046, “DrugMatrix in vitro pharmacology data”.
